Measurements taken from patent US20110312945A1, “CRTH2 MODULATORS” (priority 2008, published 2011).

Columns and labels:
CRTH2 [1] = target: T1, CRTH2 (Homo sapiens, UniProt Q9Y5Y4); test: DPBS CD11b Antagonist Assay; format: cell-based; details: polymorphonuclear cells in PBS, eosinophil CD11b expression, challenge with 15R-Methyl-PGD2 (10 nM)
T1 construct: polymorphonuclear cells (0.5 ml; 10^6/ml cells) in PBS containing 0.9 mM CaCl2 and 0.5 mM MgCl2; endogenous in cells; host or cells: polymorphonuclear cells (eosinophils gated by flow cytometry)
T1 sequence (Q9Y5Y4 1-395): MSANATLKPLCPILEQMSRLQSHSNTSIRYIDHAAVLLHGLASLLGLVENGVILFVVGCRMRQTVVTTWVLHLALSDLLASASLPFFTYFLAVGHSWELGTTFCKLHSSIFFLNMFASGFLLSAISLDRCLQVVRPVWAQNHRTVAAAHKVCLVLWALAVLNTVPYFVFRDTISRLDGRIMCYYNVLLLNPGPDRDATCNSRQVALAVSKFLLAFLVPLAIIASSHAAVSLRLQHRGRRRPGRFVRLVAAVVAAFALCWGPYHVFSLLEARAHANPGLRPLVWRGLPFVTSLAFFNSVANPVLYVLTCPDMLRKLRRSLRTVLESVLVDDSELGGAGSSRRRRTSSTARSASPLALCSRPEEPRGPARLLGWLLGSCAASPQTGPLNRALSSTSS
Method: DPBS CD11b Antagonist Assay. The potential CRTH2 antagonist activity of certain compounds was tested using a CD11b expression assay using essentially the method described by Monneret et al. (J Pharmacol Exp Ther 304:349-55, 2003). Briefly, polymorphonuclear cells (0.5 ml; 10^6/ml cells) in PBS containing 0.9 mM CaCl2 and 0.5 mM MgCl2) were preincubated with various concentrations of test compounds at room temperature for 10 minutes before they were challenged with the agonist 15R-Methyl-PGD2 (10 nM). The incubations were terminated by the addition of ice-cold FACSFlow (BD Biosciences; Cat# 342003) and centrifugation (400 g for 5 minutes at 4° C.). The cells were then incubated for 30 minutes at 4° C. with a mixture of PE-labeled mouse anti-human VLA-4 (5 μl; BD Biosciences) and FITC-labeled mouse anti-human CD11b (10 μl; Beckman Coulter). The cells were then incubated with Optilyse C (0.25 ml; Beckman Coulter) for 15 minutes, centrifuged, and then fixed in PBS (0.4 ml; calcium and magnesium free) containing 1% formaldehyde. The distribution of fluorescence intensities among 60,000 cells was measured by flow cytometry. Eosinophils were gated out on the basis of their granularity (high side scatter) and labeling with VLA-4 (PE fluorescence). CD11b was then measured in the eosinophil region on the basis of fluorescence due to FITC. All data were corrected for the value obtained for the corresponding isotope control antibody.

CRTH2 [2] = target: T1, CRTH2; test: Human Whole Blood CD11b Antagonist Assay; format: cell-based; details: eosinophil CD11b expression, challenge with 15R-Methyl-PGD2 (10 nM)
Method: Human Whole Blood CD11b Antagonist Assay (modified from Nicholson, et al. Pulmonary Pharmacology and Therapeutics: 20 (2007); 52-59). The potential CRTH2 antagonist activity of certain compounds was tested in human whole blood using an assay that tests the ability of the compounds to block the CD11b expression in eosinophils by 15-R-methyl-PGD2. A CRTH2 antagonist should block CD11b expression by subsequently added 15-Methyl-PGD2. Human whole blood (200 μL) was incubated at 37° C. for 10 minutes in the presence of various concentrations of test compounds before being challenged with the agonist 15R-Methyl-PGD2 (10 nM). Reactions were terminated by the addition of ice-cold PBS+0.5% BSA+2 mMEDTA (1 mL) and centrifugation (300×g for 5 minutes at 4° C.) Cells were then incubated at 4° C. for 10 min in the presence of human IgG. Cells were then incubated for 30-45 min with a mixture of PE-Cy5-labeled mouse anti-human CD16 (10 ul; BD Biosciences) and FITC-labeled mouse anti-human CD11b (10 μL; Beckman Coulter.) After rinsing (1 mL ice-cold PBS+0.5% BSA+2 mMEDTA), red blood cells were lysed by the addition of 1 mL ice-cold H2O to the cell pellet for 30 sec-1 min immediately followed by the addition of 3.5% NaCl (300 μL.) Cells were then rinsed (2x−1 ml ice cold PBS+0.5% BSA+2 mMEDTA) and fixed in PBS containing 1% formaldehyde. The distribution of fluorescence intensities was measured by flow cytometry. Eosinophils were gated out on the basis of their granularity (high side scatter) and absence of CD-16. CD11b was then measured on this eosinophil population on the basis of fluorescence due to FITC.

[3] = test system: DK-PGD2-induced systemic eosinophilia; test: DK-PGD2-Induced Systemic Eosinophilia in Rats; format: in vivo; details: Rattus norvegicus, Eosinophil; female Sprague-Dawley rats, oral dosing 30 min before intracardiac 10 μg DK-PGD2, blood eosinophils at 60 min
Method: DK-PGD2-Induced Systemic Eosinophilia in Rats. Female Sprague-Dawley rats (175-250 g) were dosed orally with test compound (or vehicle). Thirty minutes after dosing, animals were anaesthetized with isoflurane. Following induction of anaesthesia, animals received an intracardiac injection of 10 μg DK-PGD2 in 0.3 ml heparinized (10 U/ml) saline. Control animals received an injection of 0.3 ml heparinized saline. Sixty minutes after the intracardiac injection, animals were again anesthetized with isoflurane and a blood sample was drawn from the abdominal aorta (into heparin) while the rat was anaesthetized but not dead. An aliquot of blood (500 μL) was mixed with an equal volume of 4% dextran (mw 500,000) and the erythrocytes were allowed to settle. A cytospin preparation was made from the resulting leukocyte rich fraction (top) and the cytospin was fixed and stained with Diff-Quick Stain kit (Dade Behring Inc, Newark, Del.). An aliquot of the leukocyte rich fraction was taken for total leukocyte count using flow cytometer (Guava EasyCyte Mini system). Differential leukocyte counts were obtained from the cytospin preparations. Blood eosinophil numbers were determined from the total leukocyte count and the percentage eosinophils.

IC50 (CRTH2 [1]) [nM]	IC50 (CRTH2 [2]) [nM]	Compound	ED50 [3] [mg/kg]
< 5	5 to 100	Cc1c(Cc2ccc(S(=O)(=O)NC(C)C(C)(C)C)cc2)c2c(n1CC(=O)O)CCCC2 (stereo not drawn) [Example I-3, 2-(3-(4-(N-(3,3-Dimethylbutan-2-yl)sulfamoyl)benzyl)-2-methyl-4,5,6,7-tetrahydro-1H-indol-1-yl)acetic acid]	
< 5	5 to 100	CCOC(=O)N1CCN(S(=O)(=O)c2ccc(Cc3c4c(n(CC(=O)O)c3C)CCCC4)cc2)CC1 [Example I-5, 2-(3-(4-(4-(Ethoxycarbonyl)piperazin-1-ylsulfonyl)benzyl)-2-methyl-4,5,6,7-tetrahydro-1H-indol-1-yl)acetic acid]	
< 5	100 to 500	Cc1c(Cc2ccc(S(=O)(=O)N3CCOCC3)cc2)c2c(n1CC(=O)O)CCCC2 [Example I-6, 2-(2-Methyl-3-(4-(morpholinosulfonyl)benzyl)-4,5,6,7-tetrahydro-1H-indol-1-yl)acetic acid]	
< 5	5 to 100	Cc1c(Cc2ccccc2S(=O)(=O)c2ccccc2)c2c(n1CC(=O)O)CCCC2 [Example I-7, 2-(2-methyl-3-(2-(phenylsulfonyl)benzyl)-4,5,6,7-tetrahydro-1H-indol-1-yl)acetic acid]	
< 5	5 to 100	Cc1c(Cc2ccc(S(=O)(=O)NC3CC3)cc2)c2c(n1CC(=O)O)CCCC2 [Example I-8, 2-(3-(4-(N-Cyclopropylsulfamoyl)benzyl)-2-methyl-4,5,6,7-tetrahydro-1H-indol-1-yl)acetic acid]	
		Cc1c(Cc2ccccc2S(=O)(=O)c2ccccc2)c2c(n1CC(=O)O)CCC(C)(C)C2 [Example I-9, 2-(2,5,5-Trimethyl-3-(2-(phenylsulfonyl)benzyl)-4,5,6,7-tetrahydro-1H-indol-1-yl)acetic acid]	< 1
< 5	100 to 500	Cc1c(Cc2ccc(S(=O)(=O)NC(C)C)cc2)c2c(n1CC(=O)O)CCCC2 [Example I-10, 2-(3-(4-(N-Isopropylsulfamoyl)benzyl)-2-methyl-4,5,6,7-tetrahydro-1H-indol-1-yl)acetic acid]	
< 5	5 to 100	CCOC(=O)N1CCN(S(=O)(=O)c2ccc(Cc3c4c(n(CC(=O)O)c3C)CCC(C)(C)C4)cc2)CC1 [Example I-12, 2-(3-(4-(4-(Ethoxycarbonyl)piperazin-1-ylsulfonyl)benzyl)-2,5,5-trimethyl-4,5,6,7-tetrahydro-1H-indol-1-yl)acetic acid]	
< 5	100 to 500	Cc1c(Cc2ccc(S(=O)(=O)N3CCCCC3)cc2)c2c(n1CC(=O)O)CCC(C)(C)C2 [Example I-13, 2-(2,5,5-Trimethyl-3-(4-(piperidin-1-ylsulfonyl)benzyl)-4,5,6,7-tetrahydro-1H-indol-1-yl)acetic acid]	
< 5	5 to 100	Cc1c(Cc2ccccc2S(=O)(=O)N2CCCC2)c2c(n1CC(=O)O)CCC(C)(C)C2 [Example I-14, 2-(2,5,5-Trimethyl-3-(2-(pyrrolidin-1-ylsulfonyl)benzyl)-4,5,6,7-tetrahydro-1H-indol-1-yl)acetic acid]	
5 to 100	> 500	Cc1c(Cc2ccccc2S(=O)(=O)N2CCOCC2)c2c(n1[C@@H](C)C(=O)O)CCC(C)(C)C2 [Example I-34, (S)-2-(2,5,5-trimethyl-3-(2-(morpholinosulfonyl)benzyl)-4,5,6,7-tetrahydro-1H-indol-1-yl)propanoic acid]	
< 5	5 to 100	Cc1c(Cc2ccccc2S(=O)(=O)N2CCOCC2)c2c(n1CC(=O)O)C(C)(C)CCC2 [Example I-36, 2-(2,7,7-trimethyl-3-(2-(morpholinosulfonyl)benzyl)-4,5,6,7-tetrahydro-1H-indol-1-yl)acetic acid]	
< 5	> 500	Cc1c(Sc2ccc(S(=O)(=O)N3CCCC3)cc2)c2c(n1CC(=O)O)CCC(C)(C)C2 [Example I-38, 2-(2,5,5-trimethyl-3-(4-(pyrrolidin-1-ylsulfonyl)phenylthio)-4,5,6,7-tetrahydro-1H-indol-1-yl)acetic acid]	
< 5	< 5	Cc1c(Cc2ccccc2S(=O)(=O)N2CCOCC2)c2c(n1CC(=O)O)CCC(F)(F)C2 [Example I-39, 2-(5,5-difluoro-2-methyl-3-(2-(morpholinosulfonyl)benzyl)-4,5,6,7-tetrahydro-1H-indol-1-yl)acetic acid]	
100 to 500	> 500	Cc1c(Sc2ccc(S(=O)(=O)N3CCOCC3)cc2)c2c(n1CC(=O)O)CC(C)(C)CC2=O [Example I-41, 2-(2,6,6-trimethyl-3-(4-(morpholinosulfonyl)phenylthio)-4-oxo-4,5,6,7-tetrahydro-1H-indol-1-yl)acetic acid]	
100 to 500	> 500	Cc1c(Sc2ccc(S(=O)(=O)N3CCCC3)cc2)c2c(n1CC(=O)O)CC(C)(C)CC2=O [Example I-42, 2-(2,6,6-trimethyl-4-oxo-3-(4-(pyrrolidin-1-ylsulfonyl)phenylthio)-4,5,6,7-tetrahydro-1H-indol-1-yl)acetic acid]	
> 500	> 500	Cc1c(Cc2ccc(S(=O)(=O)N3CCCC3)cc2)c2c(n1CC(=O)O)CC(C)(C)CC2=O [Example I-44, 2-(2,6,6-trimethyl-4-oxo-3-(4-(pyrrolidin-1-ylsulfonyl)benzyl)-4,5,6,7-tetrahydro-1H-indol-1-yl)acetic acid]	
> 500	> 500	Cc1c(Cc2ccc(S(=O)(=O)N3CCOCC3)cc2)c2c(n1CC(=O)O)CC(C)(C)CC2=O [Example I-45, 2-(2,6,6-trimethyl-3-(4-(morpholinosulfonyl)benzyl)-4-oxo-4,5,6,7-tetrahydro-1H-indol-1-yl)acetic acid]	
< 5	< 5	Cc1c(Cc2ccccc2S(=O)(=O)c2ccccc2)c2c(n1CC(=O)O)CC(C)(C)CC2=O [Example I-48, 2-(2,6,6-trimethyl-4-oxo-3-(2-(phenylsulfonyl)benzyl)-4,5,6,7-tetrahydro-1H-indol-1-yl)acetic acid]	
100 to 500	100 to 500	CCOC(=O)Cn1c(C)c(Cc2ccccc2S(=O)(=O)c2ccccc2)c2c1CC(C)(C)CC2=O [Example I-63, Ethyl 2-(2,6,6-trimethyl-4-oxo-3-(2-(phenylsulfonyl)benzyl)-4,5,6,7-tetrahydro-1H-indol-1-yl)acetate]	
